Read-outs that look alike come from different tables or passages of the source.
Columns and labels:
[1] = in vivo; details: male, CD1, mouse, po, 30 mg/kg
[2] = target: HCK (Homo sapiens (Human), UniProt P08631); assay type: biochemical; details: Kinase Profiler
[3] = Full pharmacokinetic study in mice; details: for half-life: male, CD1, mouse, plasma
[4] = in vitro; details: mouse, microsomes
[5] = in vivo
[6] = microsomes
[7] = Human plasma-protein binding
[8] = target: MDR1 (P-gp) (Homo sapiens (Human), UniProt P08183); assay: in vitro; details: dog, MDCK-MDR1, MDCK-MDR1 cells
[9] = in vitro; details: human, microsomes
[10] = target: BRAF (Homo sapiens (Human), UniProt P15056); assay: biochemical; details: read-out: BRAF residual activity (%) at 1 μM, 1 μM
[11] = in vitro; details: dog, MDCK, MDCK-wild type cells
[12] = Screening PK in mice after 30 mg/kg po; details: plasma, po, 30 mg/kg
[13] = Murine plasma protein binding
[14] = microsomes; remark: listed apart in the source
[15] = target: RET (Homo sapiens (Human), UniProt P07949); assay: biochemical; details: read-out: RET residual activity (%) at 1 μM, 1 μM
Sequence of RET (P07949 29-1114 limits assumed): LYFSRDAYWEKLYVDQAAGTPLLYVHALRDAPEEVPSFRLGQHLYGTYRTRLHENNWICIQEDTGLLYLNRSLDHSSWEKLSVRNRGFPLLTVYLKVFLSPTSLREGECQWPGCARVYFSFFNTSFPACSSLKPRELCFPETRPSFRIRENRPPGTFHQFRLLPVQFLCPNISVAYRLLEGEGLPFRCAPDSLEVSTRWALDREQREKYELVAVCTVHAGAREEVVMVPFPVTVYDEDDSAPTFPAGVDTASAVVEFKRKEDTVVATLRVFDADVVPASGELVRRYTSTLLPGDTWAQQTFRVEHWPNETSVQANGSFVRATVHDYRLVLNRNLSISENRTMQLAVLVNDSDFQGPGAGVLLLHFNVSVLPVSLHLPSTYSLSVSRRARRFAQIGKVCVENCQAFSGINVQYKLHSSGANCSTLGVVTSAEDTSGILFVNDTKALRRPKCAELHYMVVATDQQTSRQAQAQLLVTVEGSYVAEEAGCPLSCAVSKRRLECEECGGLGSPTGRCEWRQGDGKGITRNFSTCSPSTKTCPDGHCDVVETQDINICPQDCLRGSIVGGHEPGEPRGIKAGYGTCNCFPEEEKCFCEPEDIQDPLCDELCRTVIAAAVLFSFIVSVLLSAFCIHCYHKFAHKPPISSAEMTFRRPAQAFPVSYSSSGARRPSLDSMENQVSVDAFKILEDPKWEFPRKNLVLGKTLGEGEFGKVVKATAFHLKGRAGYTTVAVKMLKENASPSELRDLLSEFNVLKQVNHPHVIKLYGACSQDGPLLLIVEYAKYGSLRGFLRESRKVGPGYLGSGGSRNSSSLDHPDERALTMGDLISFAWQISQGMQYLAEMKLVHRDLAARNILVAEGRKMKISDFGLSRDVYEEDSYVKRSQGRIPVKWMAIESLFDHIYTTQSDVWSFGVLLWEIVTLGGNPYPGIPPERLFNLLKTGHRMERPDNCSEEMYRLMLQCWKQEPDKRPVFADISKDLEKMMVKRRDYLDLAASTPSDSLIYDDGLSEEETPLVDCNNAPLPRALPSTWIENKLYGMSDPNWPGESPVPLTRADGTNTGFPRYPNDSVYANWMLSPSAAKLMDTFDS

[16] = target: CSF1R (Homo sapiens (Human), UniProt P07333); assay type: biochemical; details: Kinase Profiler
Sequence of CSF1R (P07333 20-972 limits assumed): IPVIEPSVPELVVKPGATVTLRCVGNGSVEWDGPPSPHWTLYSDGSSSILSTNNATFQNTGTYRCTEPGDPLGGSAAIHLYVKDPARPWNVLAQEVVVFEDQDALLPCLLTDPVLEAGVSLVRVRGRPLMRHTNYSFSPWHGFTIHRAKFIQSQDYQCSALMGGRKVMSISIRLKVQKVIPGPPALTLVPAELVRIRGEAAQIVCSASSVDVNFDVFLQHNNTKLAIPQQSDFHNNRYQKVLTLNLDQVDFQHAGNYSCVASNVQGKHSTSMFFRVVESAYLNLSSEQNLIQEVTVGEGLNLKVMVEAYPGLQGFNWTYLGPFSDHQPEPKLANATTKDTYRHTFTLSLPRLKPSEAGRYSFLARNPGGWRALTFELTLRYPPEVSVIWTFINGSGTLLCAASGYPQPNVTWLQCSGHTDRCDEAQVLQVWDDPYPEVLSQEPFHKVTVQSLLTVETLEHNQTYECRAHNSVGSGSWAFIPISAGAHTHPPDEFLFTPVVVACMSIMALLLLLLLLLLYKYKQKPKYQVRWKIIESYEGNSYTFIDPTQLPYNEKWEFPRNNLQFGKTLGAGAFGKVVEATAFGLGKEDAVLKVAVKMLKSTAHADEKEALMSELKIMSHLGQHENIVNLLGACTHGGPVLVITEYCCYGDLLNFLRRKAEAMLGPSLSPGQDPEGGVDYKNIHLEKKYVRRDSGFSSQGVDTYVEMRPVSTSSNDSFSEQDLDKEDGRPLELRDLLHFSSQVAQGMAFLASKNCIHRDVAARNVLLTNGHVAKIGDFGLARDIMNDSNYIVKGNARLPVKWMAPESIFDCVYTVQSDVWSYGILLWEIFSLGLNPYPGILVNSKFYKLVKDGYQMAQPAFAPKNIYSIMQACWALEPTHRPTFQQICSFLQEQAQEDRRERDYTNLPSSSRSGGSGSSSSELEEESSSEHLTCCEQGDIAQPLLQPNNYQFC

[17] = mouse, in vivo, po, 30 mg/kg
[18] = system: AML; details: administered intraperitoneally; cited from earlier work
[19] = system: MPAL-associated AML cell lines (including MOLM-13 and MV4-11); details: chemical inhibition of SIK3; cited from earlier work
[20] = system: K562 human CML tumours; details: PO once a day for 10 days, 5-days-on and 2-days off; cited from earlier work
[21] = system: HEL cell line; assay: Growth inhibition (GI50) of AML cell lines; assay type: cell-based; details: Homo sapiens, pMEF2C-negative, read-out: GI50 against HEL cell line
[22] = Metabolite profile in hepatocytes / in vivo
Excerpt: Metabolites are identified using high-resolution mass spectrometry.

[23] = system: MC38 colorectal carcinoma tumours; assay: MC38 syngeneic mouse tumour model (Example 8.1); details: MC38; 100 mg/Kg, BID po
[24] = Mouse hepatocyte stability; assay type: in vitro ADME; details: hepatocytes
[25] = Human hepatocyte stability; assay type: in vitro ADME; details: human, hepatocytes
[26] = system: HDAC4 phosphorylation in PANC-1 cells; assay: HDAC4 phosphorylation (Meso Scale Discovery assay); details: 10 ng/mL rHuTNF
[27] = system: MC38 murine tumour cell line; assay: TNF-sensitised cell viability assay (CellTiter-Glo); details: Mus musculus
[28] = system: MV4-11 cell line; assay: Growth inhibition (GI50) of AML cell lines; assay type: cell-based; details: Homo sapiens, MV4-11, read-out: GI50 against MV4-11 cell line
[29] = Plasma stability in human plasma; assay type: in vitro ADME; details: read-out: plasma stability T1/2
[30] = system: KASUMI-1 cell line; assay: Growth inhibition (GI50) of AML cell lines; assay type: cell-based
[31] = system: HCT116 cells; assay: TNF-sensitised cell viability assay (CellTiter-Glo); details: Homo sapiens, HCT-116, read-out: HCT116 IC50 (at 10 ng/ml rHuTNF)
[32] = Plasma stability in mouse plasma; assay type: in vitro ADME; details: read-out: plasma stability T1/2
[33] = system: NFKB activity in PANC-1 cells; assay: TNF-induced NFKB activity (NFKB-dependent luciferase reporter); details: 10 ng/ml rHuTNF
[34] = system: HEL cell line; assay: Cell killing of pMEF2C-negative HEL cell line; assay type: cell-based
[35] = system: NFKB activity in MC38 cells; assay: TNF-induced NFKB activity (NFKB-dependent luciferase reporter); details: 10 ng/ml rMuTNF
[36] = system: panel of AML cell lines; assay: Lysis of a panel of AML cell lines; assay type: cell-based; details: cell lines that have phosphorylated MEF2C protein
[37] = system: KASUMI-1 cell line; assay: Cell killing of pMEF2C-positive KASUMI-1 cell line; assay type: cell-based
[38] = in vivo; cited from earlier work

Compound: Cc1nc(Nc2ncc(C(=O)Nc3c(Cl)ccnc3C)s2)cc(N2CCN(CCO)CC2)n1 [Compound B3, N-(4-chloro-2-methylpyridin-3-yl)-2-((6-(4-(2-hydroxyethyl)piperazin-1-yl)-2-methylpyrimidin-4-yl)amino)thiazole-5-carboxamide]
- AUC(0-inf) [1]: 0.697 µM·h
- HCK residual activity [2]: less than 1%
- half-life ([3]; iv, 1 mg/kg): 0.2 h
- half-life ([3]; po, 30 mg/kg): 2.4 h
- Cmax (ng/ml), Total ([3]; mouse, in vivo): 99 ng/mL
- t1/2 (h), Free ([3]; mouse, in vivo): 2.4 h
- half-life [4]: 1.03 h
- % AUCextrap, Total ([5]; male, CD1, mouse, po, 30 mg/kg): 14%
- Human liver microsomal stability, Intrinsic clearance [6]: 24 µL/min/mg
- Human plasma-protein binding, Percentage unbound (%) ([7]; Table 5A): 7%
- Human plasma-protein binding, Percentage unbound (%) ([7]; Table 5.1A): 7%
- Papp [8]: 20 ×10⁻⁶ cm/s
- Papp ([8]; Mean Papp A > B (10^−6 cm/s)): < 0.8 ×10⁻⁶ cm/s
- half-life [9]: 0.967 h
- remaining activity at 1 µM [10]: ~50%
- Papp ([11]; Mean Papp A > B (10^−6 cm/s)): 6.8 ×10⁻⁶ cm/s
- Papp ([11]; Mean Papp B > B (10^−6 cm/s)): 20 ×10⁻⁶ cm/s
- concentration at 2 h ([12]; CD1, mouse, Free concentration (nM) at 2 hours, mice, 30 mg/kg po, 2 hours): 13 nM
- concentration at 7 h ([12]; CD1, mouse, Free concentration (nM) at 7 hours, mice, 30 mg/kg po, 7 hours): 3 nM
- Cmax at 2 h ([12]; mouse): 56 ng/mL
- Murine plasma protein binding, Percentage unbound (%) ([13]; Table 5A): 11%
- Murine plasma protein binding, Percentage unbound (%) ([13]; Table 5.1A): 11%
- Mouse liver microsomal stability, Intrinsic clearance (L/min/mg) [14]: 22 µL/min/mg
- remaining activity at 1 µM [15]: ~100%
- CSF1R residual activity [16]: less than 1%
- Plasma concentration after 6 h [17]: 29 nM

Compound: COc1ccc(N2C(=O)N(c3c(C)cccc3Cl)Cc3cnc(Nc4ccc(C5CCN(C)CC5)cc4OC)nc32)nc1 [YKL-05-099]
- AML progression [18]: supressed AML progression in-vivo

Compound: HG-9-91-01
- viability of AML cell lines [19]: strongly decreases viability

Compound: Cc1ccc(NC(=O)c2ccc(CN3CCN(C)CC3)cc2)cc1Nc1nccc(-c2cccnc2)n1 [imatinib]
- outcome in mice bearing K562 human CML tumours [20]: failed to produce a comparative response

Compound: Cc1nc(Nc2ncc(C(=O)Nc3c(C)csc3Cl)s2)cc(N2CCN(CCO)CC2)n1 [Compound C7, N-(2-chloro-4-methylthiophen-3-yl)-2-((6-(4-(2-hydroxyethyl)piperazin-1-yl)-2-methylpyrimidin-4-yl)amino)thiazole-5-carboxamide]
- GI50 [21]: ~5000 nM
- quinone-imine reactive metabolite [22]: not observed
- AUC(0-inf) [1]: 1.31 µM·h
- AUC(0-t) [1]: 1.16 µM·h
- Cmax [1]: 474 ng/mL
- MRT last [1]: 2.75 h
- half-life [1]: 1.42 h
- Body weight increase (%) [23]: 1.0%
- Non-treatment related death [23]: 3/16
- Tumour growth inhibition (%) [23]: 78%
- HCK residual activity [2]: less than 1%
- half-life [24]: 0.833 h
- microsomal CLint ([24]; read-out: Mouse hepatocyte stability, Intrinsic clearance): 28 µL/min/mg
- half-life ([25]; read-out: Human hepatocyte stability, Half-life): 0.9 h
- microsomal CLint ([25]; read-out: Human hepatocyte stability, Intrinsic clearance): 26 µL/min/mg
- half-life ([25]; read-out: half-life in the presence of human hepatocytes (converted)): ~1 h
- tolerable dose (BID by gavage, female C57BL/6, seven days): up to 100 mg/kg
- HRD in vivo @BID (highest recommended dose, BID): 100 mg/kg
- HRD in vivo @QD (highest recommended dose, QD): 100 mg/kg
- Inhibition of HDAC4 phosphorylation ([26]; 3 h): +
- Inhibition of HDAC4 phosphorylation ([26]; 3 h (Table 9C)): +
- half-life [4]: 0.217 h
- microsomal CLint [4]: 110 µL/min/mg
- % AUCextrap ([5]; male, CD1, mouse, iv, 1 mg/kg): 5.81%
- % AUCextrap ([5]; male, CD1, mouse, po, 30 mg/kg): 0.45%
- % AUCextrap, Free ([5]; male, CD1, mouse, po, 30 mg/kg): 11.24%
- % AUCextrap, Total ([5]; male, CD1, mouse, po, 30 mg/kg): 11.24%
- AUCinf (nM*h), Free ([5]; male, CD1, mouse, po, 30 mg/kg): 58.79 nM·h
- AUClast (nM*h), Free ([5]; male, CD1, mouse, po, 30 mg/kg): 52.07 nM·h
- Rsq, Free ([5]; mouse, po, 30 mg/kg): 0.99
- Rsq, Total ([5]; mouse, po, 30 mg/kg): 0.99
- Human liver microsomal stability, Intrinsic clearance [6]: 2.53e+08 µL/min/mg
- Human liver microsomal stability, % Remaining at 40 min (%) ([6]; 40 min): 1%
- Human plasma-protein binding, Percentage unbound (%) ([7]; Table 5A): <1%
- Human plasma-protein binding, Percentage unbound (%) ([7]; Table 5.1A): 2%
- recovery at 4 h ([7]; human): 75%
- Papp ([8]; Mean Papp A > B (10^−6 cm/s)): 2 ×10⁻⁶ cm/s
- half-life [9]: 0.167 h
- microsomal CLint [9]: 142 µL/min/mg
- IC50 ([27]; MC-38, read-out: MC38 IC50 (at 100 ng/mL rMuTNF)): < 200 nM
- EC50 ([27]; MC-38, read-out: mean EC50 of sensitising MC38 tumour cells to TNF-mediated killing): ~150 nM
- GI50 [28]: 480 nM
- half-life [29]: > 2.5 h
- GI50 ([30]; Homo sapiens, Kasumi 1, read-out: GI50 against KASUMI-1 cell line, pMEF2C-positive): ~2 nM
- GI50 ([30]; read-out: GI50 against KASUMI-1 cell line, pMEF2C-positive): 1.6 nM
- IC50 [31]: < 100 nM
- Papp ([11]; Mean Papp A > B (10^−6 cm/s)): 9 ×10⁻⁶ cm/s
- Murine plasma protein binding, Percentage unbound (%) ([13]; Table 5A): 5%
- Murine plasma protein binding, Percentage unbound (%) ([13]; Table 5.1A): 3%
- recovery at 4 h ([13]; mouse): 87%
- half-life [32]: > 2.5 h
- Inhibition of NFKB activity (PANC-1) ([33]; PANC-1 reporter cells): +
- Inhibition of NFKB activity ([33]; PANC-1 reporter cells (Table 9C)): +
- Mouse liver microsomal stability, % Remaining at 40 min (%) ([14]; 40 min): 10%
- cell killing [34]: low cell killing
- Inhibition of NFKB activity (MC38) [35]: +
- lysis of AML cell lines [36]: strong lysis
- CSF1R residual activity [16]: less than 1%
- cell killing [37]: highly potent cell killing

Compound: Cc1cn(-c2cc(NC(=O)c3ccc(C)c(Nc4nccc(-c5cccnc5)n4)c3)cc(C(F)(F)F)c2)cn1 [nilotinib]
- terminal / elimination half-life [38]: approximately 17 hours
